Assays:
[1] = molecular target: Tyrosine-protein kinase Fyn (Homo sapiens) (UniProt P06241); details: Compound concentration 1000.0 nM
[2] = molecular target: Serine/threonine-protein kinase LATS1 (Homo sapiens) (UniProt O95835); details: Compound concentration 1000.0 nM
[3] = molecular target: Serine/threonine-protein kinase PAK 5 (Homo sapiens) (UniProt Q9P286); details: Compound concentration 1000.0 nM
[4] = molecular target: Calcium/calmodulin-dependent protein kinase type IV (Homo sapiens) (UniProt Q16566); details: Compound concentration 1000.0 nM
[5] = test system: Receptor-type tyrosine-protein kinase FLT3 (Homo sapiens), P36888 [D835V]; details: Compound concentration 1000.0 nM
[6] = molecular target: Serine/threonine-protein kinase WNK3 (Homo sapiens) (UniProt Q9BYP7); details: Compound concentration 1000.0 nM
Chain of Serine/threonine-protein kinase WNK3 (Homo sapiens) (Q9BYP7 whole entry): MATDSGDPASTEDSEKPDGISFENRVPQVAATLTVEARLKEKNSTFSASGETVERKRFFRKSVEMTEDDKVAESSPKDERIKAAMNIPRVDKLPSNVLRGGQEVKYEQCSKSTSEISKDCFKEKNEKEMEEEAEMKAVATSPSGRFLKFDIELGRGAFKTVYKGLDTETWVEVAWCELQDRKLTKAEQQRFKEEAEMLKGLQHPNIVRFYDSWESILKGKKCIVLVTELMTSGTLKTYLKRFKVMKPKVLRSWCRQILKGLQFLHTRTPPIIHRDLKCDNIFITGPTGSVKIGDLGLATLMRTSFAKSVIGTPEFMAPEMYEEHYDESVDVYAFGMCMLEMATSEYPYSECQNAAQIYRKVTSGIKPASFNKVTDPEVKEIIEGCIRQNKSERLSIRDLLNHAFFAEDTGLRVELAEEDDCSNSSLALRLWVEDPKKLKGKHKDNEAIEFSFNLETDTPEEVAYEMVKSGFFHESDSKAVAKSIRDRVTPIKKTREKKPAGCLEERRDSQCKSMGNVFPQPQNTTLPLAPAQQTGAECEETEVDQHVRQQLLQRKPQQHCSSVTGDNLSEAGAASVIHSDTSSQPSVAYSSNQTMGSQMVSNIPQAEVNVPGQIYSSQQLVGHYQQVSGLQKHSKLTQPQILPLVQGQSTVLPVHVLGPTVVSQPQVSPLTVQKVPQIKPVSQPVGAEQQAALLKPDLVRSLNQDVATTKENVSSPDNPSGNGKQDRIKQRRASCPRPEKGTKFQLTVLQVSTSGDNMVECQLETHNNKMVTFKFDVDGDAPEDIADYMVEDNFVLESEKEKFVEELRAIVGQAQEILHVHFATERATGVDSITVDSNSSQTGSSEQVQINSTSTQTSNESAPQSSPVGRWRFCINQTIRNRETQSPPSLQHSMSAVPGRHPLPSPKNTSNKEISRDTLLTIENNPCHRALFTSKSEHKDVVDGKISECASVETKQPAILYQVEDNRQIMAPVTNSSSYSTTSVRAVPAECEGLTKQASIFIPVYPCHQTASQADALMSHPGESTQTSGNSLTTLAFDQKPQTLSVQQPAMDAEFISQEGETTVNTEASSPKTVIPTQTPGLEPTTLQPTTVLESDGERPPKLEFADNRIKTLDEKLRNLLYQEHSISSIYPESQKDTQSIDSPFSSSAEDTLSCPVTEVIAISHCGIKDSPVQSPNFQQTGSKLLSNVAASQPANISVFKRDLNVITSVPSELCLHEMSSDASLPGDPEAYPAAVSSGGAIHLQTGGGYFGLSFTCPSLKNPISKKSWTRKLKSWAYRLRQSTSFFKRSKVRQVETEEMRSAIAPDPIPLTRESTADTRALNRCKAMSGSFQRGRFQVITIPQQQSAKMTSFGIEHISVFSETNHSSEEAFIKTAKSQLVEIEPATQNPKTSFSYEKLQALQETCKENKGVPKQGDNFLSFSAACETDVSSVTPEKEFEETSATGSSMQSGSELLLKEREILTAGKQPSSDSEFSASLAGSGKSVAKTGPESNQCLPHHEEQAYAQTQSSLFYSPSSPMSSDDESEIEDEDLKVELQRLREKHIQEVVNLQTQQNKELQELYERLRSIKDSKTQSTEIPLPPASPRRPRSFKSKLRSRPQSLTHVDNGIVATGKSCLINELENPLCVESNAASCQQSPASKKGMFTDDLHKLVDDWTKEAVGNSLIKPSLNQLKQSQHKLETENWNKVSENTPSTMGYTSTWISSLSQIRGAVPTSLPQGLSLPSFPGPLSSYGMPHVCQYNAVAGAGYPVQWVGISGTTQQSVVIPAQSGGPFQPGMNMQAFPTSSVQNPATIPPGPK

[7] = molecular target: D(2) dopamine receptor (Homo sapiens) (UniProt P14416); details: Compound concentration 10.0 uM
[8] = molecular target: Histamine H2 receptor (Homo sapiens) (UniProt P25021); details: Compound concentration 10.0 uM
[9] = molecular target: Cyclin-dependent kinase 18 (Homo sapiens) (UniProt Q07002); details: Compound concentration 1000.0 nM
Chain of Cyclin-dependent kinase 18 (Homo sapiens) (Q07002 whole entry): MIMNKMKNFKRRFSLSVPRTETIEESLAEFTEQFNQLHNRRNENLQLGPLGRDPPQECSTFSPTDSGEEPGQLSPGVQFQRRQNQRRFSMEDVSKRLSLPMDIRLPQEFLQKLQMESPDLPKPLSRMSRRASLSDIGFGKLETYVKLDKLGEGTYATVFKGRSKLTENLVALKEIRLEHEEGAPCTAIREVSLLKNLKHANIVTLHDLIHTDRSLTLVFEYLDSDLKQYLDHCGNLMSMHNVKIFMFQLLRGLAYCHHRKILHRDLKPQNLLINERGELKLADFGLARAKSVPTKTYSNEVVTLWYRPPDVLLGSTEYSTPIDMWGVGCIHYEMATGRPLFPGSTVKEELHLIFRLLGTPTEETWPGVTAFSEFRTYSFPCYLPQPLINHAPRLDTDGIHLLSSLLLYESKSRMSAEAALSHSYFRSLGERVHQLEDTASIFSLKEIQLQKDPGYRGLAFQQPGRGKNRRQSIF

[10] = molecular target: Ribosomal protein S6 kinase alpha-1 (Homo sapiens) (UniProt Q15418); details: Compound concentration 1000.0 nM
Chain of Ribosomal protein S6 kinase alpha-1 (Homo sapiens) (Q15418 whole entry): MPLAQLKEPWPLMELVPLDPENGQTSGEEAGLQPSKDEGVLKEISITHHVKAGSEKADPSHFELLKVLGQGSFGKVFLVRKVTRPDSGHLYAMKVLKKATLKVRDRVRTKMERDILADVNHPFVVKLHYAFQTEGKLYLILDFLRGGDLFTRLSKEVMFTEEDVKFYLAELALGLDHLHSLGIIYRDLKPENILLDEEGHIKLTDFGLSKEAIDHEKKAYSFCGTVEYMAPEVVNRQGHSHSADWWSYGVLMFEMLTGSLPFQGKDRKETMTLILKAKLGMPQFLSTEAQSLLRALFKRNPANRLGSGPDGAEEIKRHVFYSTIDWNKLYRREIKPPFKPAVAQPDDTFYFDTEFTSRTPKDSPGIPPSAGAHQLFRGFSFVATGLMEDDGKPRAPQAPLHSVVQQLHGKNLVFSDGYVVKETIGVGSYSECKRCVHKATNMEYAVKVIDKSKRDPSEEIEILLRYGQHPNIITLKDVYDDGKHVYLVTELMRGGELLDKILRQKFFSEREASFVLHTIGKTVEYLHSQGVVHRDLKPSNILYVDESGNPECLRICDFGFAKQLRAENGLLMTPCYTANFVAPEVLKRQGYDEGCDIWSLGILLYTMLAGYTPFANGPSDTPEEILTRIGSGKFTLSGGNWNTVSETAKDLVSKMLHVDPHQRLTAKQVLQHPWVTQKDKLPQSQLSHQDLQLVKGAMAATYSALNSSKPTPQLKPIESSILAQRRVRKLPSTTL

[11] = molecular target: Testis-specific serine/threonine-protein kinase 3 (Homo sapiens) (UniProt Q96PN8); details: Compound concentration 1000.0 nM
Chain of Testis-specific serine/threonine-protein kinase 3 (Homo sapiens) (Q96PN8 whole entry): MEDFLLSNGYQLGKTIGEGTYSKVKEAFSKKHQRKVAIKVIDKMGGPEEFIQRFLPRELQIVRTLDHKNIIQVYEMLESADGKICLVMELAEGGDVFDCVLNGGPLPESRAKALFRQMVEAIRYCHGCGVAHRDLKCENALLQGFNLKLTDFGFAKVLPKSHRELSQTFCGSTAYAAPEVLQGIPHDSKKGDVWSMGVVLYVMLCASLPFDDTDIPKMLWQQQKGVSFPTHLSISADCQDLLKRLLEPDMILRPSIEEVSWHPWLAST

[12] = molecular target: Casein kinase II subunit alpha' (Homo sapiens) (UniProt P19784); details: Compound concentration 1000.0 nM
[13] = molecular target: MAP kinase-activated protein kinase 5 (Homo sapiens) (UniProt Q8IW41); details: Compound concentration 1000.0 nM
[14] = molecular target: Beta-adrenergic receptor kinase 1 (Homo sapiens) (UniProt P25098); details: Compound concentration 1000.0 nM
[15] = molecular target: Epithelial discoidin domain-containing receptor 1 (Homo sapiens) (UniProt Q08345); details: Compound concentration 1000.0 nM
[16] = test system: Epidermal growth factor receptor (Homo sapiens), P00533 [L858R,T790M]; details: Compound concentration 1000.0 nM
[17] = molecular target: Serine/threonine-protein kinase ULK1 (Homo sapiens) (UniProt O75385); details: Compound concentration 1000.0 nM
[18] = molecular target: Megakaryocyte-associated tyrosine-protein kinase (Homo sapiens) (UniProt P42679); details: Compound concentration 1000.0 nM
[19] = molecular target: RAC-gamma serine/threonine-protein kinase (Homo sapiens) (UniProt Q9Y243); details: Compound concentration 1000.0 nM
Chain of RAC-gamma serine/threonine-protein kinase (Homo sapiens) (Q9Y243 whole entry): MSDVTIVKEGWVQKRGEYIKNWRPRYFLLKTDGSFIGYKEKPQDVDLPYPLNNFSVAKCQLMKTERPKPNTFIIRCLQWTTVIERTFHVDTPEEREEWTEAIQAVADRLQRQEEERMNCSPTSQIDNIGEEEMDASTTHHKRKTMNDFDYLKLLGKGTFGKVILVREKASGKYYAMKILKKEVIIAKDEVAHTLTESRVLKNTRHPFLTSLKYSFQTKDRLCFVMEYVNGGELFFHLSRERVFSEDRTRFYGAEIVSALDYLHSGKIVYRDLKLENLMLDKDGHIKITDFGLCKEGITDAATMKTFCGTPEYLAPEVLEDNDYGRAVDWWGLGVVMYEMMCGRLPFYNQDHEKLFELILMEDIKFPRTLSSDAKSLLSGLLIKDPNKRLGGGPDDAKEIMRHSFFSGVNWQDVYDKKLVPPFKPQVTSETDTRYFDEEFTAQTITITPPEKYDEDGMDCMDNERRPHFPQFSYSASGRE

[20] = molecular target: Beta-3 adrenergic receptor (Homo sapiens) (UniProt P13945); details: Compound concentration 10.0 uM
[21] = molecular target: Proto-oncogene tyrosine-protein kinase Src (Homo sapiens) (UniProt P12931); details: Compound concentration 1000.0 nM
[22] = molecular target: Tyrosine-protein kinase ZAP-70 (Homo sapiens) (UniProt P43403); details: Compound concentration 1000.0 nM
[23] = molecular target: Serine/threonine-protein kinase BRSK2 (Homo sapiens) (UniProt Q8IWQ3); details: Compound concentration 1000.0 nM
[24] = molecular target: Serine/threonine-protein kinase D3 (Homo sapiens) (UniProt O94806); details: Compound concentration 1000.0 nM
[25] = molecular target: Muscle, skeletal receptor tyrosine-protein kinase (Homo sapiens) (UniProt O15146); details: Compound concentration 1000.0 nM
[26] = molecular target: Phosphatidylinositol 3-kinase catalytic subunit type 3 (Homo sapiens) (UniProt Q8NEB9); details: Compound concentration 1000.0 nM
[27] = molecular target: Glycogen synthase kinase-3 beta (Homo sapiens) (UniProt P49841); details: Compound concentration 1000.0 nM
[28] = test system: Tyrosine-protein kinase ABL1 (Homo sapiens), P00519 [F317I]; details: Compound concentration 1000.0 nM
[29] = molecular target: Protein kinase C theta type (Homo sapiens) (UniProt Q04759); details: Compound concentration 1000.0 nM
[30] = molecular target: Interleukin-1 receptor-associated kinase 3 (Homo sapiens) (UniProt Q9Y616); details: Compound concentration 1000.0 nM
[31] = molecular target: Serine/threonine-protein kinase pim-1 (Homo sapiens) (UniProt P11309); details: Compound concentration 1000.0 nM
[32] = molecular target: Tyrosine-protein kinase JAK1 (Homo sapiens) (UniProt P23458); details: Compound concentration 1000.0 nM
[33] = molecular target: Phosphatidylinositol 4-phosphate 5-kinase type-1 gamma (Homo sapiens) (UniProt O60331); details: Compound concentration 1000.0 nM
[34] = molecular target: Serine/threonine-protein kinase MRCK beta (Homo sapiens) (UniProt Q9Y5S2); details: Compound concentration 1000.0 nM
[35] = test system: Mast/stem cell growth factor receptor Kit (Homo sapiens), P10721 [V559D]; details: Compound concentration 1000.0 nM
[36] = molecular target: Casein kinase I isoform gamma-3 (Homo sapiens) (UniProt Q9Y6M4); details: Compound concentration 1000.0 nM
[37] = molecular target: Histamine H3 receptor (Homo sapiens, UniProt Q9Y5N1); details: Compound concentration 10.0 uM
[38] = molecular target: Tyrosine-protein kinase Yes (Homo sapiens) (UniProt P07947); details: Compound concentration 1000.0 nM
[39] = molecular target: Serine/threonine-protein kinase BRSK1 (Homo sapiens) (UniProt Q8TDC3); details: Compound concentration 1000.0 nM
[40] = molecular target: Cyclin-dependent kinase 7 (Homo sapiens) (UniProt P50613); details: Compound concentration 1000.0 nM
[41] = molecular target: Calcium/calmodulin-dependent protein kinase type II subunit gamma (Homo sapiens) (UniProt Q13555); details: Compound concentration 1000.0 nM
[42] = molecular target: Casein kinase I isoform alpha (Homo sapiens) (UniProt P48729); details: Compound concentration 1000.0 nM
[43] = molecular target: Serine/threonine-protein kinase ULK2 (Homo sapiens) (UniProt Q8IYT8); details: Compound concentration 1000.0 nM
[44] = molecular target: STE20/SPS1-related proline-alanine-rich protein kinase (Homo sapiens) (UniProt Q9UEW8); details: Compound concentration 1000.0 nM
[45] = molecular target: Aurora kinase C (Homo sapiens) (UniProt Q9UQB9); details: Compound concentration 1000.0 nM

Chain of Serine/threonine-protein kinase LATS1 (Homo sapiens) (O95835 whole entry): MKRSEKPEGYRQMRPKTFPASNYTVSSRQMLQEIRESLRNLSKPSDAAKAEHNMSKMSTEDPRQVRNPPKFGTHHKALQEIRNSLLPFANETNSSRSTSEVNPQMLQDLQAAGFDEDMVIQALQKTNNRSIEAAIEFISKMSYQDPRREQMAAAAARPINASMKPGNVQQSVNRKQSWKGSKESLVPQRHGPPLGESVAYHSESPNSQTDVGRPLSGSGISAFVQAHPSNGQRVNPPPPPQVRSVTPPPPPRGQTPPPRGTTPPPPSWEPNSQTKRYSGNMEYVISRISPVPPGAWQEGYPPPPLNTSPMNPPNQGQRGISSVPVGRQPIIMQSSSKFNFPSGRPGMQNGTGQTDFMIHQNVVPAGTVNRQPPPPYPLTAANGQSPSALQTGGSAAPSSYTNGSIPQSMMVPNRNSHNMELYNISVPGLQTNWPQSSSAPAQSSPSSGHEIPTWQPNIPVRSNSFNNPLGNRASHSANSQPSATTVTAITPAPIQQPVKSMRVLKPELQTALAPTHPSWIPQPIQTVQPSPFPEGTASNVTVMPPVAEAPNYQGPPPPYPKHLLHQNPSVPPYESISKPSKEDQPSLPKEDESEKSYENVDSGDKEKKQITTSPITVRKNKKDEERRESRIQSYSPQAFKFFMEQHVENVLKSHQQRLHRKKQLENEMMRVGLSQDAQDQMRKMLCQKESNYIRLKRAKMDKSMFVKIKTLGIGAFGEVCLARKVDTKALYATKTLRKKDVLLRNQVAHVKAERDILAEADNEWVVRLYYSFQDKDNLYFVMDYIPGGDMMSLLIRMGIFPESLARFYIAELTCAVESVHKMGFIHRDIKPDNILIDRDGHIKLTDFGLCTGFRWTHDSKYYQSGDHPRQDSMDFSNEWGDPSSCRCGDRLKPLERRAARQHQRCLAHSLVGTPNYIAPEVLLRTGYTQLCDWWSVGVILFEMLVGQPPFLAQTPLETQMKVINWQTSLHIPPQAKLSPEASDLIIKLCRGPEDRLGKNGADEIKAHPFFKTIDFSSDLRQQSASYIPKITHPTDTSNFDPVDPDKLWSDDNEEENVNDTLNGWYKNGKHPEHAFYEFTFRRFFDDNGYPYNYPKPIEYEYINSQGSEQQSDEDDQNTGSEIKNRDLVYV

## CN(C)CC#Cc1ccc(OCCCc2sc(N3CCc4cccc(C(=O)Nc5nc6ccccc6s5)c4C3)nc2C(=O)O)c(F)c1 [A-1155463]
[1]
  residual activity: 96%
[2]
  residual activity: 76%
[3]
  residual activity: 91%
[4]
  residual activity: 98%
[5]
  residual activity: 100%
[6]
  residual activity: 100%
[7]
  inhibition: 31.5%
[8]
  inhibition: 23.2%
[9]
  residual activity: 100%
[10]
  residual activity: 81%
[11]
  residual activity: 84%
[12]
  residual activity: 100%
[13]
  residual activity: 99%
[14]
  residual activity: 100%
[15]
  residual activity: 100%
[16]
  residual activity: 100%
[17]
  residual activity: 100%
[18]
  residual activity: 96%
[19]
  residual activity: 100%
[20]
  inhibition: 3.53%
[21]
  residual activity: 100%
[22]
  residual activity: 100%
[23]
  residual activity: 93%
[24]
  residual activity: 93%
[25]
  residual activity: 84%
[26]
  residual activity: 100%
[27]
  residual activity: 93%
[28]
  residual activity: 100%
[29]
  residual activity: 92%
[30]
  residual activity: 77%
[31]
  residual activity: 100%
[32]
  residual activity: 100%
[33]
  residual activity: 100%
[34]
  residual activity: 87%
[35]
  residual activity: 96%
[36]
  residual activity: 100%
[37]
  inhibition: 53.3%
[38]
  residual activity: 100%
[39]
  residual activity: 100%
[40]
  residual activity: 100%
[41]
  residual activity: 62%
[42]
  residual activity: 71%
[43]
  residual activity: 100%
[44]
  residual activity: 100%
[45]
  residual activity: 9%

— ChEMBL document CHEMBL4507311, “Data for DCP probe A-1155463” (2021)
